Data published in patent publication US10912815B2, “Inhibitors of mitochondrial fission and methods of use thereof” (The Board of Trustees of the Leland Stanford Junior …, priority 2011, dated 2021).
Residues, ends and D or L forms follow the SMILES beside them.

Assays:
Dnm1 (yeast Drp1) = molecular target: T1, Dnm1 (yeast Drp1) (Saccharomyces cerevisiae, UniProt P54861); settings: yeast and mammals, by blocking Dnm1 polymerization; cited from earlier work
T1 sequence (P54861 1-757): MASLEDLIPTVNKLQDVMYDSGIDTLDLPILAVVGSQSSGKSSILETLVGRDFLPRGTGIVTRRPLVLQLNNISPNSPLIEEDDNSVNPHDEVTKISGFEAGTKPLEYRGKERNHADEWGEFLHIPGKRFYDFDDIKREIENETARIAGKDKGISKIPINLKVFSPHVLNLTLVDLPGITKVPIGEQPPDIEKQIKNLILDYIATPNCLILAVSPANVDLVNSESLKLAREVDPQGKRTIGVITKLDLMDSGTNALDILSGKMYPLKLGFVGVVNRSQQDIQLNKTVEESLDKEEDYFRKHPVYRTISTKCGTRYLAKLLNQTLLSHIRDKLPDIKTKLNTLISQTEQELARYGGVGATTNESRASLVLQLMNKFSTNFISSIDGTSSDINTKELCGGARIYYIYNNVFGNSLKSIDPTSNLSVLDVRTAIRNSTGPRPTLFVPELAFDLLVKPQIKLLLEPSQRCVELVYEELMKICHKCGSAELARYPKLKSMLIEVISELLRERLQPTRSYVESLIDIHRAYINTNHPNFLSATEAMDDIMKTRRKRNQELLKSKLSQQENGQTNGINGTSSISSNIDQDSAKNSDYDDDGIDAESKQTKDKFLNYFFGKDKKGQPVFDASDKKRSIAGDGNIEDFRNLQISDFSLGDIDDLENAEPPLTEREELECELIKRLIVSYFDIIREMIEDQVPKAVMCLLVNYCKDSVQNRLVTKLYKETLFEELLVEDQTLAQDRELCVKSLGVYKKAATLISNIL

[1] = tested on: isolated mouse liver mitochondria with Drp1 recombinant protein; experiment: Membrane potential of isolated mouse liver mitochondria incubated with Drp1 (TMRM); type: biochemical; settings: P110 1 μM, NAC 2.5 mM, FIG. 6D bottom
Procedure: (§1) Mitochondrial membrane potential was also determined using TMRM (tetramethylrhodamine methylester). Fifty μg of mitochondria were incubated with recombinant Drp1 (50 ng) followed by incubation with TMRM (0.5 μM) in the presence or absence of P110 (1 μM) or NAC (2.5 mM). Fluoresence detection was performed using black 96-well plates in a fluorescence microplate reader at 560 nm excitation and 690 nm emission and potential was assessed by quenching of the fluorescent signal. The data are presented as mean±S.E. of percentage relative to control mitochondria from three independent experiments (FIG. 6B, #, p<0.05 vs. control cells; *, p<0.05; **, P<0.01 vs. MPP+- or CCCP-treated cells). Isolated mouse liver mitochondria (50 μg) were incubated with Drp1 recombinant protein (50 ng) in the presence or absence of P110 (1 μM). A kinetic change of mitochondrial superoxide production was determined by using MITOSOX™ (red mitochondrial superoxide indicator). The data are presented as mean±S.E. of percentage relative to the value at basal level from three independent experiments (FIG. 6C, #, p<0.05 vs. control mitochondria; *, p<0.05 vs. mitochondria with the addition of Drp1). Mitochondrial membrane potential of isolated mouse liver mitochondria was determined by TMRM, as described above, in the indicated groups. NAC (2.5 mM) was used as a positive control (FIG. 6D). Protein levels of cytochrome c in the mitochondria were determined by western blot analysis with anti-cytochrome c antibodies in the indicated groups (insert, FIG. 6D). Total ROS production was determined by staining SH-SY5Y cells with CM2HDCFA (1 μM […] at 37° C.) in the indicated groups. The data are presented as mean±S.E. of percentage relative to control group from three independent experiments (FIG. 6E, *, p<0.05 vs. either MPP+ or CCCP treated-group; #, p<0.05 vs. control group).
The mitochondrial membrane potential of isolated mouse liver mitochondria was then measured in the presence or absence of P110.

OPA1 = molecular target: T2, OPA1 (Homo sapiens, UniProt O60313); experiment: In vitro GTPase assay, recombinant OPA1; type: biochemical; settings: p<0.05, n=3, FIG. 2F
T2 sequence (O60313 88-960): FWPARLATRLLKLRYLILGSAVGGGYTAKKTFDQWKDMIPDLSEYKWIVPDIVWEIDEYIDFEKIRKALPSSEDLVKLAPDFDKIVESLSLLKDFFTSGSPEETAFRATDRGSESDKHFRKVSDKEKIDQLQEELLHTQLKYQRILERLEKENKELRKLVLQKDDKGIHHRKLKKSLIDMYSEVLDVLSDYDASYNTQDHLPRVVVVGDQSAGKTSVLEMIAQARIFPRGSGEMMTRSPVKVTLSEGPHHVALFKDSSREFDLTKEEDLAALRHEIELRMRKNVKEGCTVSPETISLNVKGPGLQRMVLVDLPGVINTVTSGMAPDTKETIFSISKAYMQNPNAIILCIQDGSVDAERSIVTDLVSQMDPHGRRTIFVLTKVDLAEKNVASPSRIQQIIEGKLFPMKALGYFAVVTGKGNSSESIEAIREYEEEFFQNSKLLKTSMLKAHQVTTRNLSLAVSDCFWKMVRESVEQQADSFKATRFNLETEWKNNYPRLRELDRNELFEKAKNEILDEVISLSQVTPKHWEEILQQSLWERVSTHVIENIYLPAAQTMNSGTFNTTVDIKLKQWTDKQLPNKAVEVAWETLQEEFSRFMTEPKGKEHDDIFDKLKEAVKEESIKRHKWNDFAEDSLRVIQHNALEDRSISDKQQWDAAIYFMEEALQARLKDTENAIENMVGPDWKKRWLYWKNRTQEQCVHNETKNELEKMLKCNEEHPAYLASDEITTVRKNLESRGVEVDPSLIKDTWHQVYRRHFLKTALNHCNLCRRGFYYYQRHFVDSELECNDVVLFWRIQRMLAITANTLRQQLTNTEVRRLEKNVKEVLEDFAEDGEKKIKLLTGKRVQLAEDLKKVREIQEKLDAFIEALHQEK
Procedure: (§2) First, mitochondrial fission inhibitor constructs were tested to determine what, if any, effects each peptide had on enzyme (GTPase) activity. Recombinant protein Drp1, Mfn1, OPA1 or dynamin-1 (25 ng) was incubated with the indicated modulator peptides for 30 min. GTPase activity was assayed in vitro using a GTPase assay kit (Innova Biosciences, Littleton, USA, or Novus Biologicals, Littleton, Colo.) according to manufacturer's instructions.

Mfn1 = molecular target: T3, Mfn1 (Homo sapiens, UniProt Q8IWA4); experiment: In vitro GTPase assay, recombinant Mfn1; type: biochemical; settings: p<0.05, n=3, FIG. 2F
T3 sequence (Q8IWA4 1-741): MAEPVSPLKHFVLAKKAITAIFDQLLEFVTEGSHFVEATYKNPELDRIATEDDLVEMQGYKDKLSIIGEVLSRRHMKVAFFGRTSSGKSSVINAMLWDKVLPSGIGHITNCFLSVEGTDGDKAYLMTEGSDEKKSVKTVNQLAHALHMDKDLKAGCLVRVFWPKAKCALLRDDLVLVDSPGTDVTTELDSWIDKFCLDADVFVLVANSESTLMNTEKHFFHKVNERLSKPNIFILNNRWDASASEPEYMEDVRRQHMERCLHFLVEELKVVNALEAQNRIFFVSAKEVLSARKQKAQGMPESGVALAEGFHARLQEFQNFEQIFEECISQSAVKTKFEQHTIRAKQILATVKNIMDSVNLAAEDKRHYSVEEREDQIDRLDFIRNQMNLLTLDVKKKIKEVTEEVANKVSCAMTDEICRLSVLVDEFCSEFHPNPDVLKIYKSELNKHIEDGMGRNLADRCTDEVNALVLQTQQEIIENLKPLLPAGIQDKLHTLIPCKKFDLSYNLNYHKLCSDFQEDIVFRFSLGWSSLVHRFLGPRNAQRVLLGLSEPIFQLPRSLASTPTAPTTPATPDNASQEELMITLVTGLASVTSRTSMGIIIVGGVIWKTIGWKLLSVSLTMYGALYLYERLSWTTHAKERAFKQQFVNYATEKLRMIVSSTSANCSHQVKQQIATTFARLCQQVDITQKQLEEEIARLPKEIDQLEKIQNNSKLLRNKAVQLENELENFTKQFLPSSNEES
Procedure: as §2

Recombinant protein Drp1 = Recombinant protein Drp1 (Homo sapiens, UniProt O00429); experiment: In vitro GTPase assay, recombinant Drp1; type: biochemical; settings: for inhibition in the GTPase activity of recombinant Drp1: recombinant Drp1 25 ng, 30 min incubation with peptide, FIG. 2A
Procedure: as §2

[2] = tested on: isolated mouse liver mitochondria with Drp1 recombinant protein; experiment: Superoxide production of isolated mouse liver mitochondria after addition of recombinant Drp1; type: biochemical; settings: isolated mouse liver mitochondria 50 μg, Drp1 50 ng, P110 1 μM, p<0.05, n=3, FIG. 6C
Procedure: as §1, with “The data are presented as mean±S.E. of percentage relative to the value at basal level from three independent experiments (FIG. 6C, #, p<0.05 vs. control mitochondria; *, p<0.05 vs. mitochondria with the addition of Drp1).” left out, “NAC (2.5 mM) was used as a positive control (FIG. 6D).” left out, “The data are presented as mean±S.E. of percentage relative to control group from three independent experiments (FIG. 6E, *, p<0.05 vs. either MPP+ or CCCP treated-group; #, p<0.05 vs. control group).” left out

SH-SY5Y cells = settings: peptides 1 μM each, MPP+ 2 mM for 24 hours, FIG. 9E
Procedure: Cell viability of stressed SH-SY5Y cells was measured by MTT assay.
In another experiment, Human SH-SY5Y cells were treated with Drp1 P108, P109 or P110 or Fis1 P111, P112 or P113 (0.5 μM) for 15 min followed by treatment with MPP+(1 mM for 24 hrs). The cell viability was then determined by MTT test.

[3] = molecular target: T4, Drp1 association with the mitochondria (Homo sapiens, UniProt O00429); experiment: Association of recombinant Drp1 (GST-Drp1) with isolated mouse liver mitochondria; type: binding; settings: peptide 1 μM, GST-Drp1, FIG. 2C
T4 construct: GST (N); host or cells: recombinant GST-Drp1 of unstated origin; mitochondria from mouse liver tissue
Procedure: If the peptides designed do represent PPI surfaces between Drp1 and Fis1, the peptides should inhibit the association of Drp1 with the mitochondria. To obtain isolated mitochondria, SH-5YSH cells were washed with cold phosphate-buffered saline (PBS) and incubated on ice in lysis buffer (250 mM sucrose, 20 mmol/L HEPES-NaOH, pH 7.5, 10 mmol/L KCl, 1.5 mmol/L MgCl2, 1 mmol/L EDTA, protease inhibitor cocktail, phosphatase inhibitor cocktail) for 30 minutes. Cells were scraped and then disrupted 10 times by repeated aspiration through a 25 gauge needle, followed by a 30 gauge needle. Mouse liver tissue was minced and ground by pestle in lysis buffer. The homogenates were spun at 800 g for 10 min at 4° C. and the resulting supernatants were spun at 10,000 g for 20 minutes at 4° C. The pellets were washed with lysis buffer and spun at 10,000 g again for 20 minutes at 4° C. The final pellets were suspended in lysis buffer containing 1% Triton X-100 and were mitochondrial-rich lysate fractions.
Mitochondria isolated from mouse liver were incubated with recombinant Drp1 (GST-Drp1). Drp1 bound to mitochondrial preparation and only P110 (1 μM) reduced this association by >60% (p<0.01, FIG. 2C); peptide carrier TAT47-57 or the other Drp1-derived peptides had no effect. The mitochondrial membrane protein VDAC was used as marker and loading control.

Sequence of Recombinant protein Drp1 (O00429 1-710 isoform O00429-3): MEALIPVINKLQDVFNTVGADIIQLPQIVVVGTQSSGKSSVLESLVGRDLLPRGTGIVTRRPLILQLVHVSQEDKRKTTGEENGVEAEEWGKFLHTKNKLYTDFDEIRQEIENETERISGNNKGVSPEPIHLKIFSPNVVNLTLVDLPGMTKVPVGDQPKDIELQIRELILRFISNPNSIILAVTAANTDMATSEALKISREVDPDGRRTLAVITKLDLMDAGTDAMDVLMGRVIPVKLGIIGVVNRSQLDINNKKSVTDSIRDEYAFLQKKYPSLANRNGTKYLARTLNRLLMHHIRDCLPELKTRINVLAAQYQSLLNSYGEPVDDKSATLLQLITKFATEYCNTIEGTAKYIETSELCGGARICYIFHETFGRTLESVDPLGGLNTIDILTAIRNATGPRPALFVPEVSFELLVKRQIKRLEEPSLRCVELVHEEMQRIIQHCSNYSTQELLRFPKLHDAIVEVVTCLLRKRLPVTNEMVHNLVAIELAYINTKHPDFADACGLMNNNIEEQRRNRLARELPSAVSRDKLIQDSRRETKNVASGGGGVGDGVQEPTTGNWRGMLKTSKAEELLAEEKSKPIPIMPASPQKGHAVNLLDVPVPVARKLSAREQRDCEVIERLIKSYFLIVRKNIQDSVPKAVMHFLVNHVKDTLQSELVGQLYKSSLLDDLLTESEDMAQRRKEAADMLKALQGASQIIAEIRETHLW
T4 sequence (O00429 1-710 isoform O00429-3): as above

COc1cc(-n2c(=S)[nH]c3ccccc3c2=O)c(Cl)cc1Cl [Mdivi-1]
mitochondrial division (Dnm1 (yeast Drp1)): inhibits mitochondrial division

CC(=O)N[C@@H](CS)C(=O)O [NAC, N-Acetyl cysteine, reference compound]
mitochondrial membrane potential (MMP) of isolated mitochondria after Drp1 addition [1]: prevented the dissipated MMP

CC(C)C[C@H](NC(=O)[C@H](CCCCN)NC(=O)CNC(=O)CNC(=O)[C@H](Cc1ccc(O)cc1)NC(=O)CNC(=O)[C@H](CCCNC(=N)N)NC(=O)[C@H](CCCCN)NC(=O)[C@H](CCCCN)NC(=O)[C@H](CCCNC(=N)N)NC(=O)[C@H](CCCNC(=N)N)NC(=O)[C@H](CCC(N)=O)NC(=O)[C@H](CCCNC(=N)N)NC(=O)[C@H](CCCNC(=N)N)NC(=O)[C@@H](N)CCCNC(=N)N)C(=O)N[C@@H](CO)C(=O)N[C@@H](C)C(=O)N[C@@H](CCCNC(=N)N)C(=O)N[C@@H](CCC(=O)O)C(=O)N[C@@H](CCC(N)=O)C(=O)N[C@@H](CCCNC(=N)N)C(=O)N[C@@H](CC(=O)O)C(N)=O [P109] (H-RRRQRRKKRGYGGKLSAREQRD-NH2)
GTPase activity of OPA1 (increased) (OPA1): 177%±13
GTPase activity of MFN1 (increased) (Mfn1): 229%±10
inhibition in the GTPase activity of recombinant Drp1 (Recombinant protein Drp1): 40%

N=C(N)NCCC[C@H](NC(=O)[C@H](CCCCN)NC(=O)[C@H](CCCCN)NC(=O)[C@H](CCCNC(=N)N)NC(=O)[C@H](CCCNC(=N)N)NC(=O)[C@H](CCC(N)=O)NC(=O)[C@H](CCCNC(=N)N)NC(=O)[C@H](CCCNC(=N)N)NC(=O)[C@@H](N)CCCNC(=N)N)C(=O)NCC(=O)N[C@@H](Cc1ccc(O)cc1)C(=O)NCC(=O)NCC(=O)N[C@@H](CCCCN)C(=O)NCC(=O)N[C@@H](CO)C(=O)N[C@@H](CCCCN)C(=O)N[C@@H](CCC(=O)O)C(=O)N[C@@H](CCC(=O)O)C(=O)N[C@@H](CCC(N)=O)C(=O)N[C@@H](CCCNC(=N)N)C(=O)N[C@@H](CC(=O)O)C(N)=O [P112] (H-RRRQRRKKRGYGGKGSKEEQRD-NH2)
specifically inhibited Drp1 GTPase activity (Recombinant protein Drp1; in vitro GTPase assay, n=3, first statement of b271): 50%
inhibition in the GTPase activity of recombinant Drp1 (Recombinant protein Drp1): no significant effect

Drp1 K38A: dominant negative mutant of Drp1, which inhibits Drp1 GTPase activity and fission activity; positive control
inhibition in the GTPase activity of recombinant Drp1 (Recombinant protein Drp1): ~70%
Drp1-induced ROS (superoxide) elevation in the mitochondria [2]: abolished
mitochondrial membrane potential (MMP) of isolated mitochondria after Drp1 addition [1]: similar

RRRQRRKKRGYGGELLPKG (RRRQRRKKRGYGGELLPKGS) [P113, TAT47-57 carrier, GG linker, Fis1 region 113 peptide]
cell viability (MTT) (SH-SY5Y cells): no significant effect
inhibition in the GTPase activity of recombinant Drp1 (Recombinant protein Drp1): no significant effect

TAT47-57: cell permeating TAT protein-derived peptide carrier, used alone as control peptide
reduction of association of Drp1 with mitochondrial preparation [3]: no effect
